Reference: ChEMBL document CHEMBL5321280, “Novel 4-Arylindolines Containing a Pyrido[3,2-d]pyrimidine Moiety as the Programmed Cell Death-1/Programmed Cell Death-Ligand 1 Interaction Inhibitors for Tumor Immunotherapy” (J Med Chem, 2023)
Activity calls are given as the source filed them. No cut-off for these calls is given here.

Experiments:
[1] = biological target: Programmed cell death protein 1/Programmed cell death 1 ligand 1 (Homo sapiens, UniProt Q15116+Q9NZQ7); experiment: Inhibition of PD-1/PD-L1 (unknown origin) protein-protein interaction incubated for 105 mins by HTRF assay; assay type: protein-complex assay
T-cell [2] = experiment: Immunomodulatory activity in concanavalin A stimulated BALB/c mouse T-lymphocyte co-cultured with mouse CT26 cells assessed as T cell proliferation at 20 nM incubated for 48 hrs by flow cytometry (reference value: 64.08 +/- 0.91%); assay type: functional
T-cell [3] = experiment: Immunomodulatory activity in concanavalin A stimulated BALB/c mouse T-lymphocyte co-cultured with mouse CT26 cells overexpressing PD-L1 assessed as T cell proliferation at 20 nM incubated for 48 hrs by flow cytometry (reference value: 58.47 +/- 2.07%); assay type: functional
T-cell [4] = experiment: Immunomodulatory activity in concanavalin A stimulated BALB/c mouse T-lymphocyte co-cultured with mouse CT26 cells assessed as increase in T cell proliferation at 5 to 80 nM incubated for 48 hrs by flow cytometry; assay type: functional, cell-based; conditions: dose 5-80 nM
T-cell [5] = experiment: Immunomodulatory activity in concanavalin A stimulated BALB/c mouse T-lymphocyte co-cultured with mouse CT26 cells overexpressing PD-L1 assessed as increase in T cell proliferation at 5 to 80 nM incubated for 48 hrs by flow cytometry; assay type: functional, cell-based; conditions: dose 5-80 nM
[6] = Metabolic stability in human liver microsomes assessed as half life; assay type: ADME, Microsome

Sequence of Programmed cell death protein 1/Programmed cell death 1 ligand 1 (Q15116 whole entry): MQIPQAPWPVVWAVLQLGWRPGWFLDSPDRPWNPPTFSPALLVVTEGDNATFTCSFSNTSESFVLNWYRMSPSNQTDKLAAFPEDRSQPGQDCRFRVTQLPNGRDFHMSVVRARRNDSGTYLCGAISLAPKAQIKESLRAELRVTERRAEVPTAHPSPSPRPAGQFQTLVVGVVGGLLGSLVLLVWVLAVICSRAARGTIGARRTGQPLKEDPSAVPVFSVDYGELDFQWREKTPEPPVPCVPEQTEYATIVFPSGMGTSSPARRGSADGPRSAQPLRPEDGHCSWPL
Sequence of Programmed cell death protein 1/Programmed cell death 1 ligand 1 (Q9NZQ7 whole entry): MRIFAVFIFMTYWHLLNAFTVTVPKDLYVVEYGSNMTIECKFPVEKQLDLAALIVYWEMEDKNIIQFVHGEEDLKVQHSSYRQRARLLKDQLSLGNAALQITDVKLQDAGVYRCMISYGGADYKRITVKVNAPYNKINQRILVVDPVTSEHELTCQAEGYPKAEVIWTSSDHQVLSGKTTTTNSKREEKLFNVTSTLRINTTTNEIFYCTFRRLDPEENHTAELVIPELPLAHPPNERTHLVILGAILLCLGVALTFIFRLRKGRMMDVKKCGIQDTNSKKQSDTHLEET

Row | half-life [6] | Structure (SMILES) | IC50 [1] | Activity (T-cell [2]) | Activity (T-cell [3]) | Activity (T-cell [4]) | Activity (T-cell [5])
1 | – | OCCNCc1cnc2c(N3CCc4c(-c5ccc6c(c5)OCCO6)cccc43)ncnc2c1 | 0.0072 µM | 61.77% | 59.54% | Active | Active
2 | – | CC(=O)NCCNCc1ccc2c(N3CCc4c(-c5ccccc5)cccc43)ncnc2c1 | 0.126 µM | – | – | – | –
3 | – | CC(C)(CO)NCc1cnc2c(N3CCc4c(-c5ccc6c(c5)OCCO6)cccc43)ncnc2c1 | 0.0141 µM | – | – | – | –
4 | – | O=C(O)[C@H]1CCN(Cc2cnc3c(N4CCc5c(-c6ccccc6)cccc54)ncnc3c2)C1 | 0.0081 µM | 54.44% | 52.78% | Active | Active
5 | – | CC(=O)NCCNCc1cnc2c(N3CCc4c(-c5ccccc5)cccc43)nccc2c1 | 0.0845 µM | – | – | – | –
6 | – | OCCNCc1cnc2c(N3CCc4c(-c5ccccc5)cccc43)nccc2c1 | 0.0317 µM | – | – | – | –
7 | 3.47 h | OCCNCc1cnc2c(N3CCc4c(-c5ccccc5)cccc43)ncnc2c1 | 0.0068 µM | 59.22% | 60.06% | Active | Active
8 | 0.373 h | O=C(c1ncc(CNC2CCOCC2)s1)N1CCc2c(-c3ccc4c(c3)OCCO4)cccc21 | 0.0189 µM | 59.1% | 60.49% | Active | Active
9 | – | O=C(O)[C@@H]1CCCN1Cc1cnc2c(N3CCc4c(-c5ccc6c(c5)OCCO6)cccc43)ncnc2c1 | 0.0158 µM | – | – | – | –
10 | – | OC[C@@H]1CCN(Cc2cnc3c(N4CCc5c(-c6ccccc6)cccc54)ncnc3c2)C1 | 0.016 µM | – | – | – | –
11 | – | O=C(O)[C@H]1CCCN1Cc1cnc2c(N3CCc4c(-c5ccccc5)cccc43)ncnc2c1 | 0.0227 µM | – | – | – | –
12 | – | c1ccc(-c2cccc3c2CCN3c2nccc3cc(CNC4CCOCC4)cnc23)cc1 | 0.128 µM | – | – | – | –
13 | – | c1ccc(-c2cccc3c2CCN3c2ncnc3cc(CNC4CCOCC4)ccc23)cc1 | 0.108 µM | – | – | – | –
14 | – | O=C(O)[C@@H]1CCN(Cc2cnc3c(N4CCc5c(-c6ccccc6)cccc54)nccc3c2)C1 | 0.0679 µM | – | – | – | –
15 | – | CC(C)(CO)NCc1cnc2c(N3CCc4c(-c5ccccc5)cccc43)nccc2c1 | 0.0444 µM | – | – | – | –
16 | – | O[C@H]1CCN(Cc2cnc3c(N4CCc5c(-c6ccccc6)cccc54)ncnc3c2)C1 | 0.0174 µM | – | – | – | –
